Measurements as given in publication PMC9047634 (RSC Advances, 2019).

Target: chorismate mutase (CM) (Mycobacterium tuberculosis, UniProt P9WIB9)
Assay: biochemical
Conditions: read-out: % Inhibition @ 30 μM ^a

chorismate mutase (CM), sequence (P9WIB9 34-199): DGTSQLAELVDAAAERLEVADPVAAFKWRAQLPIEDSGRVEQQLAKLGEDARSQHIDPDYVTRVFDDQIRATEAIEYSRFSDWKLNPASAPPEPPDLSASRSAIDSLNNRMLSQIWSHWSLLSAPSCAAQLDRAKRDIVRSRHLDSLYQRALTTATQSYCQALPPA

COc1ccc(CCNc2c([N+](=O)[O-])cc(C(=O)O)cc2S(N)(=O)=O)cc1OC [G, 4-(3,4-dimethoxyphenethylamino)-3-nitro-5-sulfamoylbenzoic acid]
inhibition at 30 µM: 57%
